Reference: US20090176804A1, “2-PHENYL-INDOLES AS PROSTAGLANDIN D2 RECEPTOR ANTAGONISTS” (priority 2006, published 2009)

These compounds were tested against T1, DP receptor (Homo sapiens, UniProt Q13258) (assay: SPA cAMP assay in human LS174 T cells (human DP functional assay)). Details: concentration of the compound producing 50% inhibition in the SPA cAMP assay in human LS174 T cells; PGD2 15 nM final.
T1 construct: the human cell line LS174T, which expresses the endogenous DP receptor; endogenous in cells; host or cells: LS174T (human cell line)
T1 sequence (Q13258 1-359): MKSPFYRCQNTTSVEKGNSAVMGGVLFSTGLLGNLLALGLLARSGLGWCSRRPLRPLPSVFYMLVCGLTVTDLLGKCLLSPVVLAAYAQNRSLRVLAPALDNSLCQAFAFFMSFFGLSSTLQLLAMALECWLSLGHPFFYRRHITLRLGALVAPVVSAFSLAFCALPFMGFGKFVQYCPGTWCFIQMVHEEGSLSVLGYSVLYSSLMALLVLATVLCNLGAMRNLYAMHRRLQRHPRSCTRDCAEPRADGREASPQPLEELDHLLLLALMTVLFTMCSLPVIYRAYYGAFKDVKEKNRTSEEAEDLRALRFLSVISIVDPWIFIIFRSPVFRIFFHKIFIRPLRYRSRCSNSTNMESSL
Type: cell-based
Excerpt: As used in the examples and preparations that follow, as well as the rest of the application, the terms used therein shall have the meanings indicated: “kg” refers to kilograms, “g” refers to grams, “mg” refers to milligrams, “μg” refers to micrograms, “mol” refers to moles, “mmol” refers to millimoles, “M” refers to molar, “mM” refers to millimolar, “μM” refers to micromolar, “nM” refers to nanomolar, “L” refers to liters, “mL” or “ml” refers to milliliters, “μL” refers to microliters, “° C.” refers to degrees Celsius, “mp” or “m.p.” refers to melting point, “bp” or “b.p.” refers to boiling point, “mm of Hg” refers to pressure in millimeters of mercury, “cm” refers to centimeters, “nm” refers to nanometers, “abs.” refers to absolute, “conc.” refers to concentrated, “c” refers to concentration in g/mL, “rt” refers to room temperature, “TLC” refers to thin layer chromatography, “HPLC” refers to high performance liquid chromatography, “i.p.” refers to intraperitoneally, “i.v.” refers to intravenously, “s”=singlet, “d”=doublet; “t”=triplet; “q”=quartet; “m”=multiplet, “dd”=doublet of doublets; “br”=broad, “LC”=liquid chromatograph, “MS”=mass spectrograph, “ESI/MS”=electrospray ionization/mass spectrograph, “RT”=retention time, “M”=molecular ion, “PSI”=pounds per square inch, “DMSO”=dimethyl sulfoxide, “DMF”=N,N-dimethylformamide, “CDI”=1,1′-carbonyldiimidazole, “DCM” or “CH2Cl2”=dichloromethane, “HCl”=hydrochloric acid, “SPA”=Scintillation Proximity Assay, “ATTC”=American Type Culture Collection, “FBS”=Foetal Bovine Serum, “MEM”=Minimal Essential Medium, “CPM”=Counts Per Minute, “EtOAc”=ethyl acetate, “PBS”=Phosphate Buffered Saline, “TMD”=transmembrane domain, “IBMX”=3-isobutyl-1-methylxanthine, “cAMP”=cyclic adenosine monophosphate, “IUPAC”=International Union of Pure and Applied Chemistry, “MHz”=megahertz, “PEG”=polyethylene glycol, “MeOH”=methanol, “N”=normality, “THF”=tetrahydrofuran, “h”=hours, “min”=minute(s), “MeNH2”=methyl amine, “N2”=nitrogen gas, “iPrOH”=isopropyl alcohol, “O.D.”=outer diameter, “MeCN” or “CH3CN”=acetonitrile, “Et2O”=ethyl ether, “TFA”=TFA, “Prep LC”=preparatory “flash” liquid chromatography, “SPE”=solid phase extraction, “LAH”=lithium aluminum hydride, “pmol”=picomolar, “heptane”=n-heptane, “HMBA-AM” resin=4-hydroxymethylbenzoic acid amino methyl resin, “PdCl2(dppf)2”=1,1′-bis(diphenylphosphino)ferrocene-palladium (II) dichloride DCM complex, “HBTU”=2-(1H-benzotriazol-1yl)-1,1,3,3-tetramethyluronium hexafluorophosphate, “DIEA”=diisopropylethylamine, “CsF”=cesium fluoride, “LiOH”=lithium hydroxide, “˜”=approximately, “IC50”=the concentration of the compound producing 50% inhibition in the SPA cAMP assay in human LS174 T cells.
The inhibitory effects of the compounds according to the invention are assessed in a human DP functional assay. A cAMP assay is employed using the human cell line LS174T, which expresses the endogenous DP receptor. The protocol is similar to that described previously (Wright D H, Ford-Hutchinson A W, Chadee K, Metters K M, The human prostanoid DP receptor stimulates mucin secretion in LS174T cells, Br J Pharmacol. 131(8):1537-45 (2000)).
Protocol for SPA cAMP Assay in Human LS174 T Cells
• PGD2 (Cayman Chemical Cat#12010) • IBMX (Sigma Cat# 5879) • cAMP SPA direct screening assay system (Amersham code RPA 559) • 96-well cell plates (Wallac Cat#1450-516) • Wallac 1450 Microplate Trilux scintillation counter (PerkinElmer) • Plate sealers • Eppendorf tubes • Dulbecco's Phosphate-Buffered Saline (PBS) (Invitrogen Cat#14040-133) • Distilled water • Vortex • Magnetic stirrer and stirrer bars
Add 50 μL of […] IBMX into 100 mL PBS to make a final concentration of 100 μM and sonicate at 30° C. for 20 minutes.
Dissolve 1 mg PGD2 (FW, 352.5) in 284 μL DMSO to make 10 mM stock solution and store at […]. Before each assay, it is freshly prepared. Add 3 μL of 10 mM stock solution to […], mix it thoroughly, and transfer 10 mL to 40 mL PBS. […]
In the case of `CNC(=O)Cc1c(-c2ccc(Cl)c(S(=O)(=O)NC3CCCCC3)c2)[nH]c2ccccc12` [Example 3, 2-[2-(4-Chloro-3-cyclohexylsulfamoyl-phenyl)-1H-indol-3-yl]-N-methyl-acetamide], the IC50 is reported as 509 nM.
In the case of `O=C(O)Cc1c(-c2ccc(Cl)c(S(=O)(=O)NCc3cc(Cl)cc(Cl)c3)c2)[nH]c2ccccc12` [Example 1(c), {2-[4-Chloro-3-(3,5-dichloro-benzylsulfamoyl)-phenyl]-1H-indol-3-yl}-acetic Acid], the IC50 is reported as 12 nM.
`COc1cccc(CCNS(=O)(=O)c2cc(-c3[nH]c4ccccc4c3CC(=O)O)ccc2Cl)c1` [Example 2(b), (2-{4-Chloro-3-[2-(3-methoxy-phenyl)-ethylsulfamoyl]-phenyl}-1H-indol-3-yl)-acetic Acid] was tested, and the IC50 was 3.3 nM.
`CC(C(=O)O)c1c(-c2ccc(Cl)c(S(=O)(=O)NC3CCCCC3)c2)[nH]c2ccccc12` (stereo not shown) [Example 14, 2-[2-(4-Chloro-3-cyclohexylsulfamoyl-phenyl)-1H-indol-3-yl]-propionic Acid] was tested, and the IC50 was 5.3 nM.
With `O=C(O)Cc1c(-c2ccc(Cl)c(S(=O)(=O)NC3CCCCC3)c2)[nH]c2c(Cl)cccc12` [Example 8, [7-Chloro-2-(4-chloro-3-cyclohexylsulfamoyl-phenyl)-1H-indol-3-yl]-acetic Acid] the IC50 was 3.7 nM.
Work on `O=C(Cc1c(-c2ccc(Cl)c(S(=O)(=O)NC3CCCCC3)c2)[nH]c2ccccc12)Nc1nnn[nH]1` [Example 12, 2-[2-(4-Chloro-3-cyclohexylsulfamoyl-phenyl)-1H-indol-3-yl]-N-(1H-tetrazol-5-yl)-acetamide] yielded an IC50 of 15 nM.
For `O=C(O)Cc1c(-c2ccc(Cl)c(S(=O)(=O)NCc3c(Cl)cccc3Cl)c2)[nH]c2ccccc12` [Example 1(b), {2-[4-Chloro-3-(2,6-dichloro-benzylsulfamoyl)-phenyl]-1H-indol-3-yl}-acetic Acid], the IC50 was 3 nM.
In the case of `O=C(O)Cc1c(-c2ccc(Cl)c(S(=O)(=O)NCCc3ccc(Cl)cc3Cl)c2)[nH]c2ccccc12` [Example 1(d), (2-{4-Chloro-3-[2-(2,4-dichloro-phenyl)-ethylsulfamoyl]-phenyl}-1H-indol-3-yl)-acetic Acid], the IC50 is reported as 2 nM.
Compound `O=C(O)Cc1c(-c2ccc(Cl)c(S(=O)(=O)NCCc3ccccc3OC(F)(F)F)c2)[nH]c2ccccc12` [Example 2(d), (2-{4-Chloro-3-[2-(2-trifluoromethoxy-phenyl)-ethylsulfamoyl]-phenyl}-1H-indol-3-yl)-acetic Acid] has an IC50 of 20 nM.
With `O=C(O)Cc1c(-c2ccc(Cl)c(S(=O)(=O)NC3CCCCC3)c2)[nH]c2cccc(F)c12` [Example 6, [2-(4-Chloro-3-cyclohexylsulfamoyl-phenyl)-4-fluoro-1H-indol-3-yl]-acetic Acid] the IC50 was 0.7 nM.
For `O=C(O)Cc1c(-c2ccc(Cl)c(S(=O)(=O)NCCCc3ccccc3)c2)[nH]c2ccccc12` [Example 2(f), {2-[4-Chloro-3-(3-phenyl-propylsulfamoyl)-phenyl]-1H-indol-3-yl}-acetic Acid], the IC50 was 7 nM.
For `CCc1ccc(-c2[nH]c3ccccc3c2CC(=O)O)cc1S(=O)(=O)NC1CCCCC1` [Example 13, [2-(3-cyclohexylsulfamoyl-4-ethyl-phenyl)-1H-indol-3-yl]-acetic Acid], the IC50 was 0.5 nM.
Work on `COc1ccccc1CCNS(=O)(=O)c1cc(-c2[nH]c3ccccc3c2CC(=O)O)ccc1Cl` [Example 2(a), (2-{4-Chloro-3-[2-(2-methoxy-phenyl)-ethylsulfamoyl]-phenyl}-1H-indol-3-yl)-acetic Acid] yielded an IC50 of 3.8 nM.
`O=C(O)Cc1c(-c2ccc(Cl)c(S(=O)(=O)NCc3ccc(Cl)cc3Cl)c2)[nH]c2ccccc12` [Example 1(a), {2-[4-Chloro-3-(2,4-dichloro-benzylsulfamoyl)-phenyl]-1H-indol-3-yl}-acetic Acid] was tested, and the IC50 was 4 nM.
With `Cc1cccc2[nH]c(-c3ccc(Cl)c(S(=O)(=O)NC4CCCCC4)c3)c(CC(=O)O)c12` [Example 7, [2-(4-Chloro-3-cyclohexylsulfamoyl-phenyl)-4-methyl-1H-indol-3-yl]-acetic Acid] the IC50 was 1.5 nM.
With `O=C(Cc1c(-c2ccc(Cl)c(S(=O)(=O)NC3CCCCC3)c2)[nH]c2ccccc12)NS(=O)(=O)C(F)(F)F` [Example 11, 2-Chloro-N-cyclohexyl-5-[3-(2-oxo-2-trifluoromethanesulfonylamino-ethyl)-1H-indol-2-yl]-benzenesulfonamide] the IC50 was 14 nM.
Work on `O=C(O)Cc1c(-c2ccc(Cl)c(NS(=O)(=O)Cc3cccc(Cl)c3)c2)[nH]c2ccccc12` [Example 16, {2-[4-Chloro-3-(3-chloro-phenylmethanesulfonylamino)-phenyl]-1H-indol-3-yl}-acetic Acid] yielded an IC50 of 12 nM.
`O=C(O)Cc1c(-c2ccc(Cl)c(S(=O)(=O)Cc3cccc(Cl)c3)c2)[nH]c2ccccc12` [Example 15, {2-[4-Chloro-3-(3-chloro-phenylmethanesulfonyl)-phenyl]-1H-indol-3-yl}-acetic Acid] gave an IC50 of 106 nM.
`COc1ccc(CCNS(=O)(=O)c2cc(-c3[nH]c4ccccc4c3CC(=O)O)ccc2Cl)cc1` [Example 2(c), (2-{4-Chloro-3-[2-(4-methoxy-phenyl)-ethylsulfamoyl]-phenyl}-1H-indol-3-yl)-acetic Acid] showed an IC50 of 3 nM.
In the case of `CCS(=O)(=O)NC(=O)Cc1c(-c2ccc(Cl)c(S(=O)(=O)NC3CCCCC3)c2)[nH]c2ccccc12` [Example 10, 2-Chloro-N-cyclohexyl-5-[3-(2-ethanesulfonylamino-2-oxo-ethyl)-1H-indol-2-yl]-benzenesulfonamide], the IC50 is reported as 2.7 nM.
Work on `CS(=O)(=O)NC(=O)Cc1c(-c2ccc(Cl)c(S(=O)(=O)NC3CCCCC3)c2)[nH]c2ccccc12` [Example 9, 2-Chloro-N-cyclohexyl-5-[3-(2-methanesulfonylamino-2-oxo-ethyl)-1H-indol-2-yl]-benzenesulfonamide] yielded an IC50 of 2 nM.
In the case of `O=C(O)Cc1c(-c2ccc(Cl)c(S(=O)(=O)NC3CCCCC3)c2)[nH]c2cccc(Cl)c12` [Example 4, [4-Chloro-2-(4-chloro-3-cyclohexylsulfamoyl-phenyl)-1H-indol-3-yl]-acetic Acid], the IC50 is reported as 0.2 nM.
